pIC50, pKi: −log10 of the molar value. Where a SMILES comes first, the peptide text is derived from it. [ ]: non-standard residue; d: D form. The star is where a group is joined. Cbz = O=C(OCc1ccccc1)*; CH2Cl = ClC*; CH2F = FC*
Experiments:
[1] = SW1271 cell viability assay; assay type: cell-based; conditions: human, SW1271 small cell lung cancer cells (luciferase-constructed), SW1271 cells
Procedure: UCHL1 is a key promoter of cell invasion and metastasis in small cell lung cancer but not necessarily required for cell viability or proliferation. Thus, we chose to assess the efficacy of targeting UCHL1 using the SW1271 small cell lung cancer cell line. […] The Ub-ABP assay was used to confirm on target engagement of UCHL1 within these cells.
Luciferase-constructed cancer cells were seeded in 96-well plates at 10,000 cells/well with the compounds at the indicated concentrations. DMSO was used as vehicle control. Luminescence readings were acquired after adding 1% D-luciferin (GoldBio, St. Louis, MO, USA) after 24 h. Cell viability was determined by the ratio of luminescence reading compared to the one at 0 h, and normalized to vehicle control.

UCHL1 [2] = target: T1, UCHL1 (Homo sapiens, UniProt P09936); experiment: Fluorescence-based Ub-Rho deubiquitinase activity assay; assay type: biochemical; parameters: made in house; conditions: for pIC50: 3 h of preincubation with UCHL1, technical triplicate, averages, read-out: IC50; for in vitro activity against UCHL1: up to 200 µM
T1 sequence (P09936 1-223): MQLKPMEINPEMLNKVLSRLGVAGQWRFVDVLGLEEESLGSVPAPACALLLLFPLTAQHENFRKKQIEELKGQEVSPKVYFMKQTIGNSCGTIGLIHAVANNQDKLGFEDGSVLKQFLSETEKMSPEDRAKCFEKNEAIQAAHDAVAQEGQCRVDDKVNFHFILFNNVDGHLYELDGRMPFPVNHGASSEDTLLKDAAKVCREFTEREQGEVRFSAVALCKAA
Procedure: Thus, a 3-h preincubation period was selected for the structure-activity relationship (SAR) comparison of all analogs to ensure full reaction time and for consistent comparison of activity against UCHL1 within the scaffold. […] A 10 mM stock solution was made for each inhibitor in DMSO, then a dilution of 600 µM in reaction buffer was made followed eight by 1:1 serial dilutions. […] These were allowed to incubate, while sealed, for the 3 h at room temperature. […] The % activity was plotted as a function of inhibitor concentration and the data was fitted with non-linear regression analysis to calculate the IC50 values. Errors are reported as the 95% confidence interval calculated from experiments collected in technical triplicate.

UCHL1 [3] = target: T1, UCHL1; experiment: as above; assay type: biochemical; parameters: made in house; conditions: even after 6 h of incubation with the enzyme
UCHL1 [4] = target: T1, UCHL1; experiment: Time-dependent inhibitor analysis (kinact/KI); assay type: biochemical; parameters: made in house
Procedure: Irreversible covalent inhibitors may be further characterized by determining the reversible binding constant (KI) as well as the rate of the covalent bond formation under saturating conditions (kinact). By determining the IC50 over the course of various timepoints, the pseudo first-order rate constant (kobs) could be calculated. […] The % activity of each inhibitor concentration was the plotted vs. time of pre-incubation and the slope of this plot is the pseudo first-order rate constant (kobs) for inhibition at each concentration. The kobs was plotted as a function of inhibitor concentration and then fit to the equation Y = kinactX/(KI + X) to calculate kinact, KI and kinact/KI as described by Resnick et al..

SW1271 cells = experiment: Click reaction and in-gel fluorescence of treated SW1271 cells; assay type: cell-based; conditions: 100 µM, 4 h
Procedure: Leveraging the alkyne handle, a click reaction was performed with an azide containing sulfo-cyanine5 fluorophore (Cy5) to visualize proteins within the cells that were conjugated to either the fluoromethylketone 34 or the chloromethylketone 37. Cells were pretreated with either analog then harvested and washed to removed unreacted inhibitor. The cells were then lysed and the click reaction was performed on lysates. […] Further evaluation using proteomic profiling is warranted to gain a quantitative understanding on the potential for non-specificity at off-target cysteines.
Cells were treated with 100 µM inhibitor or DMSO for 4 h before being washed, scraped, and lysed in 200 µL of lysis buffer (1× PBS, 1% v/v Triton X-100, 0.1% w/v SDS, 1X HALT) for 30 min on ice with vigorous vortexing every 10 min. Samples were then pelleted at 17,000× g for 10 min before collecting the supernatant and measuring concentration using BCA. Samples were normalized to 2 mg/mL and stored at −80 °C overnight. The following day, samples were thawed. While thawing, a click cocktail was prepared (for each sample, the cocktail consists of: 3 µL of 1.7 mM THPTA in 1:4 tBuOH/DMSO, 1 µL of 50 mM CuSO4 in water, 1 µL of 1.25 mM Cy5-N3 in DMSO, and 1 µL of 50 mM TCEP in water freshly prepared). […] The samples were then analyzed by SDS-PAGE and imaged on a Licor Odyssey and subsequently Coomassie stained.

KMS-12 cell lines = test system: KMS-12 cell lines; parameters: method as in PMID 31449350; conditions: cells do not express UCHL1; cited from earlier work
UCHL1 [5] = target: T1, UCHL1; parameters: made in house; conditions: previous studies; cited from earlier work
[6] = IC50 comparison, 3 h preincubation

For `COC(=O)CC[C@H](NC(=O)[C@H](C)NC(=O)[C@@H](NC(=O)OCc1ccccc1)C(C)C)C(=O)CCl` [Cpd 14] (Cbz-Val-Ala-Glu(OMe)-CH2Cl), which CC50 at 24 h [1] is on record?
Its CC50 at 24 h is 0.156 µM.

And the pIC50 (UCHL1 [2])?
Its pIC50 is less than 3.70.

What about the “in vitro activity against UCHL1” value (UCHL1 [2]) of the same molecule?
Its value is “complete loss of in vitro activity”.

With `COC(=O)CC[C@H](NC(=O)CNC(=O)[C@@H](NC(=O)OCc1ccccc1)C(C)C)C(=O)CF` [Cpd 15] (Cbz-Val-Gly-Glu(OMe)-CH2F) as the molecule, how does the pIC50 (UCHL1 [2]) read?
The pIC50 was 4.02.

With `CC(C)[C@H](NC(=O)OCc1ccccc1)C(=O)NCC(=O)N[C@@H](CCC(=O)O)C(=O)CF` [Cpd 16] (Cbz-Val-Gly-Glu-CH2F) as the molecule, how does the pIC50 (UCHL1 [2]) read?
Its pIC50 is less than 3.70.

What about the “in vitro activity against UCHL1” value (UCHL1 [3]) of the same molecule?
The value was “complete abrogation of activity”.

With `COC(=O)CC[C@H](NC(=O)[C@H](C)NC(=O)[C@H](NC(=O)OCc1ccccc1)C(C)C)C(=O)CF` [Cpd 17] (Cbz-[dV]-Ala-Glu(OMe)-CH2F) as the molecule, how does the pIC50 (UCHL1 [2]) read?
The pIC50 was less than 3.70.

And the “in vitro activity against UCHL1” value (UCHL1 [2])?
Its value is “complete loss of activity”.

With `COC(=O)CC[C@H](NC(=O)[C@H](C)NC(=O)CNC(=O)OCc1ccccc1)C(=O)CF` [Cpd 18] (Cbz-Gly-Ala-Glu(OMe)-CH2F) as the molecule, how does the pIC50 (UCHL1 [2]) read?
The pIC50 was less than 3.70.

What about the “in vitro activity against UCHL1” value (UCHL1 [2]) of the same molecule?
Its value is “complete abrogation of activity”.

With `COC(=O)CC[C@H](NC(=O)[C@H](C)NC(=O)[C@H](C)NC(=O)OCc1ccccc1)C(=O)CF` [Cpd 19] (Cbz-Ala-Ala-Glu(OMe)-CH2F) as the molecule, how does the pIC50 (UCHL1 [2]) read?
Its pIC50 is 4.12.

What about the “fold less effective than parent compound 1” value (UCHL1 [2]; [6]) of the same molecule?
Its value is 3 fold.

With `COC(=O)CC[C@H](NC(=O)[C@H](C)NC(=O)[C@H](CC(C)C)NC(=O)OCc1ccccc1)C(=O)CF` [Cpd 20] (Cbz-Leu-Ala-Glu(OMe)-CH2F) as the molecule, how does the pIC50 (UCHL1 [2]) read?
Its pIC50 is 4.64.

With `COC(=O)CC[C@H](NC(=O)[C@H](C)NC(=O)[C@H](Cc1ccccc1)NC(=O)OCc1ccccc1)C(=O)CF` [Cpd 21, Cbz-L-Phe-L-Ala-L-Glu(OMe)-fluoromethylketone] (Cbz-Phe-Ala-Glu(OMe)-CH2F) as the molecule, how does the pIC50 (UCHL1 [2]) read?
The pIC50 was 4.89.

With `COC(=O)CC[C@H](NC(=O)[C@H](C)NC(=O)[C@H](CO)NC(=O)OCc1ccccc1)C(=O)CF` [Cpd 22] (Cbz-Ser-Ala-Glu(OMe)-CH2F) as the molecule, how does the pIC50 (UCHL1 [2]) read?
Its pIC50 is 3.73.

With `COC(=O)CC[C@H](NC(=O)[C@H](C)NC(=O)[C@@H](NC(=O)OCc1ccccc1)[C@@H](C)O)C(=O)CF` [Cpd 23] (Cbz-Thr-Ala-Glu(OMe)-CH2F) as the molecule, how does the pIC50 (UCHL1 [2]) read?
The pIC50 was 4.00.

With `COC(=O)CC[C@H](NC(=O)[C@H](C)NC(=O)[C@H](CC(N)=O)NC(=O)OCc1ccccc1)C(=O)CF` [Cpd 24] (Cbz-Asn-Ala-Glu(OMe)-CH2F) as the molecule, how does the pIC50 (UCHL1 [2]) read?
The pIC50 was 3.92.

With `COC(=O)CC[C@H](NC(=O)[C@H](C)NC(=O)[C@H](CC(=O)O)NC(=O)OCc1ccccc1)C(=O)CF` [Cpd 25] (Cbz-Asp-Ala-Glu(OMe)-CH2F) as the molecule, how does the pIC50 (UCHL1 [2]) read?
The pIC50 was less than 3.70.

With `COC(=O)CC[C@H](NC(=O)[C@@H](C)NC(=O)[C@@H](NC(=O)OCc1ccccc1)C(C)C)C(=O)CF` [Cpd 26] (Cbz-Val-[dA]-Glu(OMe)-CH2F) as the molecule, how does the pIC50 (UCHL1 [2]) read?
Its pIC50 is less than 3.70.

And the “in vitro activity against UCHL1” value (UCHL1 [2])?
Its value is “loss of activity”.

With `COC(=O)CC[C@H](NC(=O)[C@H](CC(C)C)NC(=O)[C@@H](NC(=O)OCc1ccccc1)C(C)C)C(=O)CF` [Cpd 27] (Cbz-Val-Leu-Glu(OMe)-CH2F) as the molecule, how does the pIC50 (UCHL1 [2]) read?
Its pIC50 is less than 3.70.

With `COC(=O)CC[C@H](NC(=O)[C@H](Cc1ccccc1)NC(=O)[C@@H](NC(=O)OCc1ccccc1)C(C)C)C(=O)CF` [Cpd 28] (Cbz-Val-Phe-Glu(OMe)-CH2F) as the molecule, how does the pIC50 (UCHL1 [2]) read?
The pIC50 was less than 3.70.

With `COC(=O)CC[C@H](NC(=O)[C@H](CO)NC(=O)[C@@H](NC(=O)OCc1ccccc1)C(C)C)C(=O)CF` [Cpd 29] (Cbz-Val-Ser-Glu(OMe)-CH2F) as the molecule, how does the pIC50 (UCHL1 [2]) read?
The pIC50 was 4.00.

With `COC(=O)CC[C@H](NC(=O)[C@@H](NC(=O)[C@@H](NC(=O)OCc1ccccc1)C(C)C)[C@@H](C)O)C(=O)CF` [Cpd 30] (Cbz-Val-Thr-Glu(OMe)-CH2F) as the molecule, how does the pIC50 (UCHL1 [2]) read?
The pIC50 was less than 3.70.

With `COC(=O)CC[C@H](NC(=O)[C@H](CC(N)=O)NC(=O)[C@@H](NC(=O)OCc1ccccc1)C(C)C)C(=O)CF` [Cpd 31] (Cbz-Val-Asn-Glu(OMe)-CH2F) as the molecule, how does the pIC50 (UCHL1 [2]) read?
The pIC50 was less than 3.70.

With `COC(=O)CC[C@H](NC(=O)[C@H](CC(=O)O)NC(=O)[C@@H](NC(=O)OCc1ccccc1)C(C)C)C(=O)CF` [Cpd 32] (Cbz-Val-Asp-Glu(OMe)-CH2F) as the molecule, how does the pIC50 (UCHL1 [2]) read?
The pIC50 was less than 3.70.

With `COC(=O)CC[C@H](NC(=O)[C@H](CCC(=O)O)NC(=O)[C@@H](NC(=O)OCc1ccccc1)C(C)C)C(=O)CF` [Cpd 33] (Cbz-Val-Glu-Glu(OMe)-CH2F) as the molecule, how does the pIC50 (UCHL1 [2]) read?
Its pIC50 is less than 3.70.

With `C#Cc1ccc(COC(=O)N[C@H](C(=O)NCC(=O)N[C@@H](CCC(=O)OC)C(=O)CF)C(C)C)cc1` [Cpd 35] as the molecule, how does the pIC50 (UCHL1 [2]) read?
The pIC50 was 4.21.

And the “fold more active than non-alkyne analog 15” value (UCHL1 [2]; [6])?
Its value is “about 1.5 fold”.

For `C#Cc1ccc(COC(=O)N[C@@H](Cc2ccccc2)C(=O)N[C@@H](C)C(=O)N[C@@H](CCC(=O)OC)C(=O)CF)cc1` [Cpd 36], which kinact/KI (UCHL1 [4]; Table 3 and text, read-out: kinact/KI) is on record?
Its kinact/KI is 208 M⁻¹ s⁻¹.

And the kinact (UCHL1 [4]; read-out: kinact)?
Its kinact is 0.0157 s⁻¹.

What about the pKi (UCHL1 [4]; reversible binding constant of covalent inhibition, read-out: KI) of the same molecule?
The pKi was 4.12.

What about the pIC50 (UCHL1 [2]) of the same molecule?
The pIC50 was 4.96.

What about the “fold more active than 1 versus UCHL1” value (UCHL1 [2]; [6]) of the same molecule?
The value was 2 fold.

With `C#Cc1ccc(COC(=O)N[C@H](C(=O)N[C@@H](C)C(=O)N[C@@H](CCC(=O)OC)C(=O)CCl)C(C)C)cc1` [Cpd 37] as the molecule, how does the CC50 at 24 h [1] read?
Its CC50 at 24 h is 0.176 µM.

What about the “proteins labelled in SW1271 cells (Cy5 click, in-gel fluorescence)” value (SW1271 cells) of the same molecule?
The value was “non-specifically label multiple proteins within the cell”.

What about the pIC50 (UCHL1 [2]) of the same molecule?
Its pIC50 is less than 3.70.

And the “in vitro activity against UCHL1” value (UCHL1 [2])?
Its value is “inactive”.

Which “anti-proliferative properties in KMS-12 cell lines” value (KMS-12 cell lines) does the source give for `N#CN1CCC[C@H]1C(=O)N1CCc2c(-c3cn[nH]c3C(F)(F)F)cccc21` [MT-19] here?
The value was “anti-proliferative properties”.

For `COC(=O)C[C@H](NC(=O)[C@H](C)NC(=O)[C@@H](NC(=O)OCc1ccccc1)C(C)C)C(=O)CF` [VADFMK] (Cbz-Val-Ala-Asp(OMe)-CH2F), which “activity against UCHL1” value (UCHL1 [5]) is on record?
Its value is “inactive”.
